Assay results published in ChEMBL document CHEMBL5036320, “Discovery of Icenticaftor (QBW251), a Cystic Fibrosis Transmembrane Conductance Regulator Potentiator with Clinical Efficacy in Cystic Fibrosis and Chronic Obstructive Pulmonary Disease” (J Med Chem, 2021).
≈ marks a conversion by molar mass, not a printed value.

How the values were obtained:
[1] = tested on: Cystic fibrosis transmembrane conductance regulator (Homo sapiens), P13569 [F508del]; test: Potentiation of CFTR F508del mutant (unknown origin) expressed in CHO cells assessed as chloride transport by measuring membrane potential incubated for 5 to 30 mins in presence of forskolin by Quattro assay relative to PG-01; assay type: cell-based; set-up: concentration or dose not given beside the values; settings: filed as activator, time 5-30 min
[2] = molecular target: T1, Cystic fibrosis transmembrane conductance regulator (Homo sapiens, UniProt P13569, F508DEL); test: Potentiation of CFTR F508del mutant (unknown origin) expressed in CHO cells assessed as chloride transport by measuring membrane potential incubated for 5 to 30 mins in presence of forskolin by Quattro assay; assay type: cell-based
[3] = Solubility of the compound at pH 6.8; assay type: physicochemical; settings: buffer
[4] = Plasma protein binding in cynomolgus monkey at 5 uM incubated for 4 hrs by equilibrium dialysis method; assay type: ADME, cell-free, Macaca fascicularis; settings: read-out: PPB (converted)
[5] = Plasma protein binding in Beagle dog at 5 uM incubated for 4 hrs by equilibrium dialysis method; assay type: ADME, cell-free, Canis lupus familiaris; settings: read-out: PPB (converted)
[6] = Plasma Protein binding in human incubated for 4 hrs by equilibrium dialysis method; assay type: ADME, cell-free; settings: read-out: PPB (converted)
[7] = molecular target: T1, Cystic fibrosis transmembrane conductance regulator; test: Potentiation of CFTR F508del mutant (unknown origin) expressed in FRT cells assessed as chloride transport by measuring membrane potential in presence of forskolin; assay type: cell-based
[8] = molecular target: Cystic fibrosis transmembrane conductance regulator (Homo sapiens, UniProt P13569, G551D); test: Potentiation of CFTR G551D mutant (unknown origin) expressed in FRT cells assessed as chloride transport by measuring membrane potential in presence of forskolin; assay type: cell-based
[9] = molecular target: T2, Cystic fibrosis transmembrane conductance regulator (Homo sapiens, UniProt P13569); test: Potentiation of wild-type CFTR (unknown origin) expressed in FRT cells assessed as chloride transport by measuring membrane potential in presence of forskolin; assay type: cell-based
Target sequence in this assay (P13569 whole entry): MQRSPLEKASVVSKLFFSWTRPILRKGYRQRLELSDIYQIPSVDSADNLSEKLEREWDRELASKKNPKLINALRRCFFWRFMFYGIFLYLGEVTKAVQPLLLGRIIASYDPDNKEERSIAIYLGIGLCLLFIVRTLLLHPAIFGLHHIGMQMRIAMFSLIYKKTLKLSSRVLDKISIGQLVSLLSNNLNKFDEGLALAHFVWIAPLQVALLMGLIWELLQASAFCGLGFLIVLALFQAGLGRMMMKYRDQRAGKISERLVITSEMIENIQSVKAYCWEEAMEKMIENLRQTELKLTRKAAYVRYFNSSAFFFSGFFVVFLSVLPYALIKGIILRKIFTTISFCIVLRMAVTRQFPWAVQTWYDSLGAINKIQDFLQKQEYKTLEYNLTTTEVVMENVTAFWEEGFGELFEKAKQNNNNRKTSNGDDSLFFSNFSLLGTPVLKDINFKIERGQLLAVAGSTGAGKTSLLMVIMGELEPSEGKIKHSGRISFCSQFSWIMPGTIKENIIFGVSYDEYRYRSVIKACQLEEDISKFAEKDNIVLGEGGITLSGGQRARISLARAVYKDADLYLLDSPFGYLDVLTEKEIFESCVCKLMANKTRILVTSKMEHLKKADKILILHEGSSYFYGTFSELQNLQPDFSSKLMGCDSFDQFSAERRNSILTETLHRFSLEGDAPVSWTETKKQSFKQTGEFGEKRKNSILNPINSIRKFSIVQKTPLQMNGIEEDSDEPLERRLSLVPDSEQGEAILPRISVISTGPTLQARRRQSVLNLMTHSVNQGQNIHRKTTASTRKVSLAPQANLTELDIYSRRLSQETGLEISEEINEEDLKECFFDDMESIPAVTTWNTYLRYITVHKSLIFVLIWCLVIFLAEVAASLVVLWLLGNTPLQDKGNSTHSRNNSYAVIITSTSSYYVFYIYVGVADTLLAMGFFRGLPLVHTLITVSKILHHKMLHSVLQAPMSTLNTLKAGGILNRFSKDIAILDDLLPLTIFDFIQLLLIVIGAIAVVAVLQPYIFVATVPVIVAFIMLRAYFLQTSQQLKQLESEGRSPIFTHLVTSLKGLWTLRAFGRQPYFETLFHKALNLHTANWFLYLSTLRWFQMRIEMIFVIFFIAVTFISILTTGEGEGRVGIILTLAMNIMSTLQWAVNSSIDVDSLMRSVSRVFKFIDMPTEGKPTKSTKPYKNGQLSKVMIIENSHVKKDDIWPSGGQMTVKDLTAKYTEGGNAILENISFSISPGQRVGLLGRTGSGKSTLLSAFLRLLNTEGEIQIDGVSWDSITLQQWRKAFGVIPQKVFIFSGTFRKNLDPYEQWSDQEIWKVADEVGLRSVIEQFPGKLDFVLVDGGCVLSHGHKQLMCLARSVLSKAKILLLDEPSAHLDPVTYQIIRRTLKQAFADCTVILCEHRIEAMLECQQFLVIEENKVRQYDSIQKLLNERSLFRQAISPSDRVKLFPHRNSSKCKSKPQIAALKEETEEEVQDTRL

[10] = molecular target: T2, Cystic fibrosis transmembrane conductance regulator; test: Potentiation of wild type CFTR (unknown origin) expressed in HBE cells assessed as change in short circuit current in presence of forskolin and amiloride; assay type: cell-based
Target sequence in this assay (P13569 whole entry): as above

[11] = molecular target: T1, Cystic fibrosis transmembrane conductance regulator; test: Potentiation of CFTR F508 deletion mutant (unknown origin) expressed in HBE cells assessed as change in short circuit current in presence of forskolin and amiloride; assay type: cell-based
[12] = molecular target: T1, Cystic fibrosis transmembrane conductance regulator; test: Potentiation of CFTR F508del mutant (unknown origin) expressed in CHO cells assessed as chloride transport by measuring membrane potential preincubated for 5 mins followed by forskolin addition by FLIPR assay; assay type: cell-based
[13] = tested on: Cystic fibrosis transmembrane conductance regulator (Homo sapiens), P13569 [F508del]; test: Potentiation of CFTR F508del mutant (unknown origin) expressed in FRT cells assessed as chloride transport by measuring membrane potential in presence of forskolin relative to PG-01; assay type: cell-based; settings: filed as activator
[14] = molecular target: T2, Cystic fibrosis transmembrane conductance regulator; test: Potentiation of wild-type CFTR (unknown origin) expressed in FRT cells assessed as chloride transport by measuring membrane potential in presence of forskolin relative to PG-01; assay type: cell-based; settings: filed as activator
Target sequence in this assay (P13569 whole entry, looked up): as the sequence (P13569 whole entry) above

[15] = tested on: Cystic fibrosis transmembrane conductance regulator (Homo sapiens), P13569 [F508del]; test: Potentiation of CFTR F508del mutant (unknown origin) expressed in CHO cells assessed as chloride transport by measuring membrane potential preincubated for 5 mins followed by forskolin addition by FLIPR assay relative to PG-01; assay type: cell-based; settings: filed as activator

T1 sequence (P13569 as listed by the source): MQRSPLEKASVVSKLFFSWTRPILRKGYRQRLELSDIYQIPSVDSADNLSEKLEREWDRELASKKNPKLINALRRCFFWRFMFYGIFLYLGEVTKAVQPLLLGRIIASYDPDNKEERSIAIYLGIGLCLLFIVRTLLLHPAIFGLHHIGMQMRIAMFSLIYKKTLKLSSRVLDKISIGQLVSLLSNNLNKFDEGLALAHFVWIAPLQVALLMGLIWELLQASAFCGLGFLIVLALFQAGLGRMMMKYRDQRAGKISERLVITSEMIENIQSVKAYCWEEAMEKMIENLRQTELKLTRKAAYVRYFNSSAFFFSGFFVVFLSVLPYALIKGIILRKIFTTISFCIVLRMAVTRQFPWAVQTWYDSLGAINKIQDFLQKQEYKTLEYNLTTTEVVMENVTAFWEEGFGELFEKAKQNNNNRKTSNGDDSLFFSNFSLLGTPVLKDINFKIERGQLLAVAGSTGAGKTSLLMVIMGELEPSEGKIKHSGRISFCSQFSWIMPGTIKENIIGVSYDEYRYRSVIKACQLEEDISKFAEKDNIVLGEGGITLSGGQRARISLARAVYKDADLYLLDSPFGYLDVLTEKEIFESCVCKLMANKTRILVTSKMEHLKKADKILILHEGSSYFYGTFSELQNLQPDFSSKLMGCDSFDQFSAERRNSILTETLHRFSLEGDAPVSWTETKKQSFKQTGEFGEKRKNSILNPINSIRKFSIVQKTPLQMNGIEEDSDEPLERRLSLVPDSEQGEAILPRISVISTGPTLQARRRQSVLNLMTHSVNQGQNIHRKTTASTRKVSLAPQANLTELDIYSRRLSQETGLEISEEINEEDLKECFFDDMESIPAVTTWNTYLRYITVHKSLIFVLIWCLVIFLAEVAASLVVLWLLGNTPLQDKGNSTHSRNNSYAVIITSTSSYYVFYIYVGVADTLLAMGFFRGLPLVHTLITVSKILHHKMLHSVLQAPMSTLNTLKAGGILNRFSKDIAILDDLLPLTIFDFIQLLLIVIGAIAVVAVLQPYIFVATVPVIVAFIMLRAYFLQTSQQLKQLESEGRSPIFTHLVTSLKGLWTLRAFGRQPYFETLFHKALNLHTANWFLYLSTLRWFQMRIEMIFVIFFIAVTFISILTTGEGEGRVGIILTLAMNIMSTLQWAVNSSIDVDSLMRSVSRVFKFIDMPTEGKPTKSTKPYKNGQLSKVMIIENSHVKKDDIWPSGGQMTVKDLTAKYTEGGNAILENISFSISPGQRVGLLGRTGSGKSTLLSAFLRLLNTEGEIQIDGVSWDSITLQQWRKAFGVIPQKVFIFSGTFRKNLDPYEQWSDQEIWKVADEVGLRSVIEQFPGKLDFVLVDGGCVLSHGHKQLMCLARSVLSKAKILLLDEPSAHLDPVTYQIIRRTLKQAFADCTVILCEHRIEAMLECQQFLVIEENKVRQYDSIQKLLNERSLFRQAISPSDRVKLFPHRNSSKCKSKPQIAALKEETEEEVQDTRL
Chain of Cystic fibrosis transmembrane conductance regulator (Homo sapiens), P13569 [F508del] (P13569 as listed by the source): as above
Chain of Cystic fibrosis transmembrane conductance regulator (Homo sapiens, UniProt P13569, G551D) (P13569 whole entry G551D): as the sequence (P13569 whole entry) above, with G551D counted along it

In the case of CCOc1nc(C(=O)NC[C@](C)(O)C(F)(F)F)c(N)cc1C(F)(F)F, the Activity [1] is reported as 116%, the EC50 [2] is reported as 15 nM and the solubility [3] is reported as 60 µg/mL (≈ 160 µM).
Nc1cc(C(F)(F)F)c(Br)nc1C(=O)NC[C@H](O)C(F)(F)F showed an Activity [1] of 102%, an EC50 [2] of 23 nM and a solubility [3] of 290 µg/mL (≈ 732 µM).
COC(=O)c1nc(-c2ccco2)c(C(F)(F)F)cc1N gave an Activity [1] of 72%, an EC50 [2] of 5310 nM and a solubility [3] of 11 µg/mL (≈ 38.4 µM).
In the case of COc1nc(C(=O)NC[14C](C)(O)C(F)(F)F)c(N)cc1C(F)(F)F (centres undefined), the fraction unbound at 4 h, 5 µM [4] is reported as 0.12, the fraction unbound at 4 h, 5 µM [5] is reported as 0.052 and the fraction unbound at 4 h [6] is reported as 0.077.
Work on CC(O)CNC(=O)c1nc(Br)c(C(F)(F)F)cc1N (racemic) yielded an Activity [1] of 79%, an EC50 [2] of 70 nM and a solubility [3] of 120 µg/mL (≈ 351 µM).
Molecule CN(C)c1nc(C(=O)NCC(C)(O)C(F)(F)F)c(N)cc1C(F)(F)F (stereo in doubt; 31b) [listing 1 of 2 here] has an EC50 [2] of 46 nM.
In the case of CC(O)(CNC(=O)c1ncc(C(F)(F)F)cc1N)C(F)(F)F (racemic), the Activity [1] is reported as 78% and the EC50 [2] is reported as 229 nM.
Molecule CN(C)c1nc(C(=O)NCC(C)(O)C(F)(F)F)c(N)cc1C(F)(F)F (stereo in doubt; 31b) [listing 2 of 2 here] has an Activity [1] of 93%.
Molecule Nc1cc(C(F)(F)F)c(Br)nc1C(=O)NCC(O)(C(F)(F)F)C(F)(F)F has an Activity [1] of 117%, an EC50 [2] of 10 nM and a solubility [3] of 3 µg/mL (≈ 6.46 µM).
Molecule Nc1cc(C(F)(F)F)c(Br)nc1C(=O)NCCC(F)(F)F has an Activity [1] of 132%, an EC50 [2] of 40 nM and a solubility [3] of 49 µg/mL (≈ 129 µM).
Work on CNc1nc(C(=O)NCC(C)(O)C(F)(F)F)c(N)cc1C(F)(F)F (stereo in doubt; 30b) [listing 1 of 2 here] yielded an Activity [1] of 95%.
Work on CNc1nc(C(=O)NCC(C)(O)C(F)(F)F)c(N)cc1C(F)(F)F (stereo in doubt; 30b) [listing 2 of 2 here] yielded an EC50 [2] of 111 nM.
For CNC(=O)c1cc(-c2ccco2)c(C(F)(F)F)cc1N, the Activity [1] was 83%, the EC50 [2] was 1860 nM and the solubility [3] was 13 µg/mL (≈ 45.7 µM).
In the case of CC(C)(C)c1cc(C(C)(C)C)c(NC(=O)c2c[nH]c3ccccc3c2=O)cc1O [IVACAFTOR], the EC50 [7] is reported as 49 nM, the EC50 [8] is reported as 131 nM and the EC50 [9] is reported as 70 nM. For the same molecule, the EC50 [10] was 34 nM and the EC50 [11] was 68 nM.
With CC(C)(O)CNC(=O)c1nc(Br)c(C(F)(F)F)cc1N the Activity [1] was 101%, the EC50 [2] was 77 nM and the solubility [3] was 28 µg/mL (≈ 78.6 µM).
In the case of Cc1nc(C(=O)NCC(C)(O)C(F)(F)F)c(N)cc1C(F)(F)F (racemic), the Activity [1] is reported as 99% and the EC50 [2] is reported as 240 nM.
CC(C)c1ccc(NC(=O)C(c2ccccc2)N(C)C(=O)Cc2c[nH]c3ccccc23)cc1 (centres undefined) showed an EC50 [2] of 1250 nM, an EC50 [7] of 260 nM and an EC50 [9] of 990 nM. The EC50 [12] was 390 nM.
Molecule O=c1c(-c2ccc(O)cc2)coc2cc(O)cc(O)c12 has an Activity [1] of 88%, an Activity [13] of 54% and an Activity [14] of 138%. For the same molecule, the Activity [15] was 83%.
Work on CCc1nc(C(=O)NCC(C)(O)C(F)(F)F)c(N)cc1C(F)(F)F (stereo in doubt; 28b) yielded an Activity [1] of 101%.
